Consider 17 molecules from the Deep4Chem optical property database.

This data set in a line: solvent given as SMILES.

`O=C([O-])c1ccccc1-c1c2cc(I)c(=O)c(I)c-2oc2c(I)c([O-])c(I)cc12`: the absorption maximum is, setting by setting: (in CC(C)O) 532 nm; (in CCO) 532 nm; (in CO) 526 nm; (in O) 521 nm.

As for `CCCCOC(=O)c1ccccc1-c1c2ccc(=[N+](CC)CC)cc-2oc2cc(N(CC)CC)ccc12`, the absorption maximum (in CC#N) is on record as 555 nm, the absorption maximum (in CCO) amounted to 543 nm, the absorption maximum (in CN(C)C=O) is listed as 562 nm and the absorption maximum (in O) amounted to 558 nm.

On to `C#CCNC1=C2C(C)=CC(C)=[N+]2[B-](F)(F)n2c(C)cc(C)c21`, for which the absorption maximum was found to be 468.5 nm (in C1CCCCC1); 453 nm (in CC(C)=O); 457 nm (in CCOC(C)=O); 453 nm (in CO); 450.5 nm (in OCC(F)(F)F).

On to `CN(C)c1ccc2cc(C3=[O+][B-](F)(F)OC(c4ccccc4)=C3)ccc2c1`, for which the absorption maximum runs as follows: (in C1CCOC1) 492 nm; (in CC#N) 503 nm; (in CC(C)=O) 498 nm; (in CS(C)=O) 520 nm; (in Cc1ccccc1) 489 nm; (in ClC(Cl)Cl) 500 nm. The absorption maximum (in ClCCl) came to 504 nm.

In the case of `CC1(C)c2ccccc2N(c2ccccc2)c2ccc(-c3nc(-c4ccccc4)nc(-c4ccccc4)n3)cc21`, the absorption maximum (in Cc1ccccc1) came to 389.97 nm.

For the molecule `CCOC(=O)c1c(-c2cc3c(ccc4ccccc43)oc2=O)nn(-c2cccc(Cl)c2)c1C(=O)OCC`, where the note is “in ClCCl”, the absorption maximum turned out to be 361 nm.

For `CC1(C)c2ccccc2N(c2ccc(-c3nc4c(C#N)ccc(C#N)c4nc3-c3ccc(N4c5ccccc5C(C)(C)c5ccccc54)cc3)cc2)c2ccccc21`, the absorption maximum (in Cc1ccccc1) is 479 nm.

With `Cc1ccc2ccc3cccc4ccc1c2c34`, the absorption maximum runs as follows: (in CCCCCC) 338 nm; (in CO) 338 nm; (in ClCCl) 341 nm.

For the molecule `COC1=[N+]2C(=C(c3ccccc3)c3ccc(OC)n3[B-]2(F)F)C=C1SC#N`, the absorption maximum (in CC#N) is 504 nm; the absorption maximum (in CCCCCC) was 514 nm; the absorption maximum (in CCOC(C)=O) amounted to 506 nm; the absorption maximum (in CO) was found to be 497 nm; the absorption maximum (in ClCCl) was 515 nm.

`CC1=CC(C)=[N+]2C1=C(c1ccccc1)c1c(C)c(-c3cccs3)c(C)n1[B-]2(F)F` displayed an absorption maximum (in CO) of 507 nm, an absorption maximum (in Cc1ccccc1) of 513 nm and an absorption maximum (in ClCCl) of 511 nm.

`CC(C)Nc1cc2oc3cc(NC(C)C)c(F)cc3c(=O)c2cc1F` yielded an absorption maximum (in CCO) of 370 nm.

Consider `CCN(CC)c1ccc(OC)c(C=O)c1`, for which the absorption maximum is, setting by setting: (in CC#N) 412 nm; (in CC(C)O) 418 nm; (in CCCCCC) 400 nm; (in CCOC(C)=O) 406 nm; (in CO) 420 nm; (in CS(C)=O) 424 nm. The same molecule returned an absorption maximum (in Cc1ccccc1) of 411 nm and an absorption maximum (in ClCCl) of 415 nm.

Under “in C1CCCCC1”, `COc1ccc2c3c(c4ccc(OC)cc4c2c1)C1(c2ccccc2-c2ccccc21)c1ccccc1-3` had an absorption maximum of 386 nm.

On to `Cc1cc(=O)oc2cc3cc(O)ccc3cc12`, for which the absorption maximum came to 343 nm (in CC#N) and 357 nm (in CCO).

Consider `CCCN1/C(=C/C=C(/C=C/C2=[N+](CCC)c3ccccc3C2(C)C)c2ccc3ccccc3n2)C(C)(C)c2ccccc21`, for which the absorption maximum reads like this: (in CO) 629 nm; (in CS(C)=O) 641 nm; (in O) 633 nm.

With `CN1C(=CC2=C([O-])C(=Cc3sc4ccccc4[n+]3C)C2=C(C#N)C#N)C(C)(C)c2ccccc21`, under “in ClC(Cl)Cl”, the absorption maximum is reported as 691 nm.

Consider `CCn1c2ccccc2c2cc(/C=C(\C#N)c3ccccc3)ccc21`, for which the absorption maximum (in ClCCl) was determined as 374 nm.
